The record followed here is patent US20150307841A1, “Composition for Promoting Differentiation and Proliferation of Neural Stem Cell and Neural Precursor Cell” (priority 2014, published 2015).

SMILES strings stand for the structures.

In experiment [1] the test system is hippocampal neural precursor cells (NPCs). The experiment can be described thus: NeuN, GFAP, TUJ1, MAP2 immunostaining of cultured embryonic neural precursor cells (differentiation, neurite outgrowth). In kind it is cell-based, rat. From the text: Pregnant Sprague-Dawley rats purchased from Orient Animal Breeding Center (a branch of Charles River Laboratories, Gyeonggi-do, Korea) were sacrificed by exposing to CO2 inhalation. Hippocampal neural precursor cells (NPCs) were isolated from the brain of the E16 rat embryo according to the method of Shin M H et al. (Exp Mol Med, 2002) with slight modifications.
Briefly, hippocampi were aseptically dissected from the embryonic forebrain, mechanically dissociated in Ca^2+/Mg^2+-free Hank's balanced salt solution (HBSS) and then plated at 7×10^5 cells/cm^2 on 60-mm dishes pre-coated with 15 μg/mL poly-L-ornithine and 1 μg/mL fibronectin. The neural precursor cells were cultured in serum-free N2 media supplemented with 10 ng/mL bFGF in 5% CO2 for 3 days and then detached using 0.05% trypsin-ethylenediaminetetraacetic acid (EDTA). The neural precursor cells were plated on 12-mm cover glasses (Bellco Co., Vineland, N.J., USA) and cultured one more day in N2 media supplemented with 10 ng/mL bFGF in 5% CO2 (primary culturing).
Following the primary culturing in (1), in order to confirm the differentiation of the neural precursor cells and the proliferation of the differentiated neurons, the neural precursor cells were cultured on 12-mm cover glasses (Bellco Co., Vineland, N.J., USA) for 4 days in bFGF-free N2 media with 2×10^4 cells/well. For double immunostaining of GFAP and NeuN, and TUJ1 and MAP2, the cells were cultured for only 2 days.
The immunostaining was carried out as previously described (Donaldson J G (2001) Immunofluorescence staining Curr Protoc Cell Biol Chapter 4: Unit 4.3) with minor modifications.
On the next day, after adding a vehicle (dimethyl sulfoxide) or soyasaponin I at different concentrations of 0.5, 1 or 2 μM to the media, the cells were fixed with 4% PFA in PBS at 4° C. for 4-15 minutes. The cells were permeabilized with 0.5% Triton X-100 for 5 minutes and blocked with 5% normal serum (a mixture of normal donkey, goat and horse sera) for 1 hour at room temperature.
The cells were incubated with anti-GFAP (1:1,000, Chemicon), anti-NeuN (1:500, Chemicon), anti-MAP2 (1:2,500, Sigma) and anti-TUJ1 (1:2,000, Sigma) primary antibodies for 1 hour at room temperature. The secondary antibodies and scanning method used were the same as in (2).
Cell counting was performed as reported by Park H J et al. (Phytother Res, 2008). The average length per neurite of the MAP2-positive cells with longer neurites more than double the cell body width was counted from 10-12 confocal laser microscopic fields that were randomly chosen per the cultured cover glass. Primary branches, which directly outgrow from the cell body, were counted when the length of the primary branches was 2 times or longer than the cell body width. All secondary and tertiary branches that come from the primary and secondary branches, respectively, were also counted. The numbers of the branches were also counted from 10-12 confocal laser microscopic fields that were randomly chosen per each cover glass on which the neuronal cells were grown and immunostained with MAP2 antibodies. Analysis of the neurite length and the numbers of the branches was performed with LSM Image Examiner ver. 2.80 (Carl Zeiss).

The test system of experiment [2] is memory-deficient model rats. The experiment can be described thus: Passive avoidance test in memory-deficient model rats. In kind it is in vivo, rat. The source says:
Ibotenic acid is a neurotoxin present in mushrooms and is known to cause powerful damage to neurons when directly injected into the brain of mice or rats. In particular, because senile plaques and neuronal cell death appear in the entorhinal cortex and hippocampus in early Alzheimer's disease patients (Ueki A et al. J Neurol Sci, 1994), memory-deficient model rats were generated by injecting ibotenic acid (IBO) into the entorhinal cortex. The surgical protocol followed Heo H et al.'s method (J Ethnopharmacol, 2009) with some modifications. In the model animals, the injection of ibotenic acid induces cell death not only in the entorhinal cortex but also in the CA and DG regions of the hippocampus and impairs hippocampus-related learning and memory abilities.
The 6-week-old rats were anesthetized with equithesin (350 mM pentobarbital sodium, 250 mM chloral hydrate, 85 mM MgSO4 and 40% propylene glycol in 10% ethanol, 2 mL/kg). […]
The passive avoidance was carried out as described in Heo H et al. (J Ethnopharmacol, 2009), with the same number of animals per group as the Y-maze test. […] Exactly 24 hours after the acquisition trial, the rats were placed in the lighted chamber again and the latency time to enter the dark chamber was measured for 720 seconds (retention trial). […]

In the case of `C[C@@H]1O[C@@H](O[C@H]2[C@H](O[C@H]3[C@H](O[C@H]4CC[C@@]5(C)[C@@H](CC[C@]6(C)[C@@H]5CC=C5[C@@H]7CC(C)(C)C[C@@H](O)[C@]7(C)CC[C@]56C)[C@@]4(C)CO)O[C@H](C(=O)O)[C@@H](O)[C@@H]3O)O[C@H](CO)[C@H](O)[C@@H]2O)[C@H](O)[C@H](O)[C@H]1O` [soyasaponin I], in experiment [1] (1 μM soyasaponin I for 4 days), the “Neurite length (MAP2) increase compared to the normal group” value came to 2.2 fold. Moreover, in experiment [1] (0.5 and 1 μM, concentration-dependent), the “Number of NeuN-expressing cells (differentiation into mature neurons)” value is “increased”. The “Astrocytes expressing glial fibrillary acidic protein (GFAP) in the cultures” value in experiment [1] (hippocampal neural precursor cell cultures) is recorded as “hardly observed”. Moreover, the “Increase in TUJ1-expressing cells compared to the normal group” value in experiment [1] (soyasaponin I 0.5 μM group) is “about 4 fold”. Further, in experiment [1] (soyasaponin I 1 μM group), the Average neurite length entry is on record as “markedly increased”; the “Numbers of both primary and secondary branches” value is recorded as “markedly increased”. Also, the “Passive avoidance latency time, relative to that of the normal group” value in experiment [2] (10 mg/kg oral, tests 2 weeks after administration (Experimental Example 2)) was found to be 89.65%. In experiment [2] (Experimental Example 1, retention trial 24 hours after shock), the “Passive avoidance latency time” value was “improvement in latency time”.
